Measured values as given in the supplement of paper PMC13380429.
± gives the standard deviation of the averaged measurements.

Legend:
A549-ACE2 [1] = test: drug-induced phospholipidosis relative to tamoxifen; higher = more phospholipidosis
U2OS [2] = test: relative viability EC50 (midpoint between 100% and the lowest measured viability); higher = less toxic; conditions: 72 h
Vero E6 [3] = test: as above; conditions: 72 h
Calu-3 [4] = test: as above; conditions: 72 h
HepG2 [5] = test: as above; conditions: 72 h
Caco-2 [6] = test: as above; conditions: 72 h
U2OS [7] = test: drug sensitivity score (DSS) for viability; higher = more toxic; extreme values may be limits of the assay; conditions: 72 h
Vero E6 [8] = test: as above; conditions: 72 h
Calu-3 [9] = test: as above; conditions: 72 h
HepG2 [10] = test: as above; conditions: 72 h
Caco-2 [11] = test: as above; conditions: 72 h
[12] = tested on: A549-ACE2 infected with SARS-CoV-2; test: morphology score (similarity to uninfected cells); higher = more like uninfected cells; conditions: 24 h
[13] = tested on: A549-ACE2 infected with SARS-CoV-2; test: cell count relative to DMSO; higher = less toxic; conditions: 24 h
[14] = tested on: A549-ACE2 infected with SARS-CoV-2; test: SARS-CoV-2 infection rate relative to DMSO; higher = more infection; conditions: 24 h
U2OS [15] = test: cell viability relative to DMSO; higher = less toxic; conditions: 72 h
Vero E6 [16] = test: as above; conditions: 72 h
Calu-3 [17] = test: as above; conditions: 72 h
HepG2 [18] = test: as above; conditions: 72 h
Caco-2 [19] = test: as above; conditions: 72 h
A549-ACE2 [20] = test: phospholipidosis EC50; higher = less potent phospholipidosis inducer

Cc1csc(NC(=O)CSc2ccc(-c3ccccc3)nn2)n1
drug-induced phospholipidosis [%], A549-ACE2 [1]
Conditions	0.3 µM	0.833333 µM	3.33333 µM	6.66667 µM	10 µM	30 µM
24 h	1.93	-1.81	-0.96	2.15	1.89	7.11
48 h	2.87	0.35	1.94	5.23	4.85	15.6
72 h	2.21	0.253	3.17	3.1	6.16	24.6

Conditions	drug sensitivity score	relative viability EC50 [µM]
Caco-2 [6]	–	> 10
Caco-2 [11]	0	–
Calu-3 [4]	–	> 10
Calu-3 [9]	0	–
HepG2 [5]	–	> 10
HepG2 [10]	1.2	–
U2OS [2]	–	> 10
U2OS [7]	0	–
Vero E6 [3]	–	> 10
Vero E6 [8]	0	–

Conditions	SARS-CoV-2 infection rate, [14] [%]	cell count, [13] [%]	cell viability, Caco-2 [19] [%]	cell viability, Calu-3 [17] [%]	cell viability, HepG2 [18] [%]	cell viability, U2OS [15] [%]	cell viability, Vero E6 [16] [%]	morphology score, [12]
1 nM	–	–	92.1	85	97.8	98	101	–
10 nM	–	–	93.4	99.1	109	97.3	102	–
100 nM	–	–	103	104	90.4	102	99.1	–
0.3 µM	105	97	–	–	–	–	–	-0.03
1000 nM	–	–	97	99.3	89.1	99.3	105	–
3 µM	88	97	–	–	–	–	–	0.29
10 µM	92	107	–	–	–	–	–	0.25
10000 nM	–	–	104	108	87.4	104	94.5	–
30 µM	84	100	–	–	–	–	–	0.25

Cc1[nH]c(/C=C2\C(=O)Nc3ccc(F)cc32)c(C)c1C(=O)NCCN1CCCC1 [toceranib]
drug-induced phospholipidosis [%], A549-ACE2 [1]
Conditions	0.3 µM	0.833333 µM	3.33333 µM	6.66667 µM	10 µM	30 µM
24 h	4.88	-0.73	12.9	38.6	54.2	119
48 h	5.94	-0.83	1.11	20.1	38.4	–
72 h	4.25	-2.8	-0.0471	16	34	–

Conditions	drug sensitivity score	relative viability EC50 [µM]
Caco-2 [6]	–	> 10
Caco-2 [11]	0	–
HepG2 [10]	2	–
U2OS [2]	–	> 10
U2OS [7]	0.5	–
Vero E6 [8]	0.8	–

Conditions	SARS-CoV-2 infection rate [%]	cell count [%]	cell viability [%]	morphology score	phospholipidosis EC50 [µM]
A549-ACE2 [20], 24 h	–	–	–	–	16.5
Caco-2 [19], 1 nM	–	–	95.6	–	–
Caco-2 [19], 10 nM	–	–	94.8	–	–
Caco-2 [19], 100 nM	–	–	98.8	–	–
Caco-2 [19], 1000 nM	–	–	105	–	–
Caco-2 [19], 10000 nM	–	–	92.9	–	–
HepG2 [18], 1 nM	–	–	99.4	–	–
HepG2 [18], 10 nM	–	–	107	–	–
HepG2 [18], 100 nM	–	–	97.3	–	–
HepG2 [18], 1000 nM	–	–	106	–	–
HepG2 [18], 10000 nM	–	–	53.9	–	–
U2OS [15], 1 nM	–	–	95.5	–	–
U2OS [15], 10 nM	–	–	97.9	–	–
U2OS [15], 100 nM	–	–	103	–	–
U2OS [15], 1000 nM	–	–	96.3	–	–
U2OS [15], 10000 nM	–	–	85.2	–	–
Vero E6 [16], 1 nM	–	–	89.9	–	–
Vero E6 [16], 10 nM	–	–	99.1	–	–
Vero E6 [16], 100 nM	–	–	101	–	–
Vero E6 [16], 1000 nM	–	–	106	–	–
Vero E6 [16], 10000 nM	–	–	73.2	–	–
[12], 0.1 µM	–	–	–	0.22	–
[12], 0.3 µM	–	–	–	-0.03	–
[12], 1 µM	–	–	–	0.33	–
[12], 3 µM	–	–	–	0.51	–
[13], 0.1 µM	–	107	–	–	–
[13], 0.3 µM	–	103	–	–	–
[13], 1 µM	–	102	–	–	–
[13], 3 µM	–	111	–	–	–
[14], 0.1 µM	88	–	–	–	–
[14], 0.3 µM	107	–	–	–	–
[14], 1 µM	100	–	–	–	–
[14], 3 µM	80	–	–	–	–

N#CC[C@@H](C1CCCC1)n1cc(-c2ncnc3[nH]ccc23)cn1 [ruxolitinib-(S)]
drug-induced phospholipidosis [%], A549-ACE2 [1]
Conditions	0.3 µM	0.833333 µM	3.33333 µM	6.66667 µM	10 µM	30 µM
24 h	-0.6	-1.86	-0.62	3.24	4.69	32.2
48 h	-3.03	-3.25	-1.5	0.99	1.91	–
72 h	-3.98	-4.86	-3.52	-0.549	1.82	–

Conditions	drug sensitivity score	relative viability EC50 [µM]
Caco-2 [6]	–	> 10
Caco-2 [11]	0	–
Calu-3 [4]	–	> 10
Calu-3 [9]	0	–
HepG2 [5]	–	> 10
HepG2 [10]	0	–
U2OS [2]	–	> 10
U2OS [7]	0	–
Vero E6 [3]	–	> 10
Vero E6 [8]	0	–

Conditions	SARS-CoV-2 infection rate, [14] [%]	cell count, [13] [%]	cell viability, Caco-2 [19] [%]	cell viability, Calu-3 [17] [%]	cell viability, HepG2 [18] [%]	cell viability, U2OS [15] [%]	cell viability, Vero E6 [16] [%]	morphology score, [12]
1 nM	–	–	103 ± 2.2	91.4	101 ± 11	100 ± 3.2	98.5 ± 2	–
10 nM	–	–	99 ± 1.1	97.1	96 ± 3.6	99.1 ± 5	101 ± 2.9	–
100 nM	–	–	106 ± 0.99	99	92.3 ± 6.9	99.3 ± 1.6	98.2 ± 2.5	–
0.3 µM	109	88	–	–	–	–	–	0.15
1000 nM	–	–	93.6 ± 1.1	102	103.3 ± 0.99	97.5 ± 1.1	96.5 ± 3	–
3 µM	110	100	–	–	–	–	–	0.17
10 µM	112	91	–	–	–	–	–	-0.08
10000 nM	–	–	99.6 ± 3.5	112	97.4 ± 12	95.8 ± 1.5	94.05 ± 0.78	–
30 µM	119	36	–	–	–	–	–	-0.15

Fc1ccc(-n2cc(CCCCN3CCC4(CC3)OCc3ccccc34)c3ccccc32)cc1 [siramesine]
drug-induced phospholipidosis [%], A549-ACE2 [1]
Conditions	0.3 µM	0.833333 µM	3.33333 µM	6.66667 µM	10 µM
24 h	2.74	5.08	32.4	33.5	24.5
48 h	4.1	0.61	22.6	47.9	–
72 h	0.56	0.623	23.8	61.4	–

Conditions	drug sensitivity score	relative viability EC50 [µM]
Caco-2 [6]	–	3.26
Caco-2 [11]	3.3	–
Calu-3 [4]	–	3.44
Calu-3 [9]	4.2	–
HepG2 [5]	–	3.03
HepG2 [10]	4.4	–
U2OS [7]	2.2	–
Vero E6 [8]	2.2	–

Conditions	SARS-CoV-2 infection rate [%]	cell count [%]	cell viability [%]	morphology score	phospholipidosis EC50 [µM]
A549-ACE2 [20], 72 h	–	–	–	–	4.1
Caco-2 [19], 1 nM	–	–	97.3	–	–
Caco-2 [19], 10 nM	–	–	104	–	–
Caco-2 [19], 100 nM	–	–	85.1	–	–
Caco-2 [19], 1000 nM	–	–	101	–	–
Caco-2 [19], 10000 nM	–	–	37.5	–	–
Calu-3 [17], 1 nM	–	–	88.8	–	–
Calu-3 [17], 10 nM	–	–	94.3	–	–
Calu-3 [17], 100 nM	–	–	88.2	–	–
Calu-3 [17], 1000 nM	–	–	104	–	–
Calu-3 [17], 10000 nM	–	–	17.8	–	–
HepG2 [18], 1 nM	–	–	97.7	–	–
HepG2 [18], 10 nM	–	–	100	–	–
HepG2 [18], 100 nM	–	–	93.5	–	–
HepG2 [18], 1000 nM	–	–	98.6	–	–
HepG2 [18], 10000 nM	–	–	24	–	–
U2OS [15], 1 nM	–	–	100	–	–
U2OS [15], 10 nM	–	–	97.7	–	–
U2OS [15], 100 nM	–	–	95.6	–	–
U2OS [15], 1000 nM	–	–	103	–	–
U2OS [15], 10000 nM	–	–	53.2	–	–
Vero E6 [16], 1 nM	–	–	98.9	–	–
Vero E6 [16], 10 nM	–	–	93.5	–	–
Vero E6 [16], 100 nM	–	–	99.2	–	–
Vero E6 [16], 1000 nM	–	–	89	–	–
Vero E6 [16], 10000 nM	–	–	73.5	–	–
[12], 0.1 µM	–	–	–	0.38	–
[12], 0.3 µM	–	–	–	0.75	–
[12], 1 µM	–	–	–	0.69	–
[12], 3 µM	–	–	–	0.84	–
[13], 0.1 µM	–	111	–	–	–
[13], 0.3 µM	–	114	–	–	–
[13], 1 µM	–	117	–	–	–
[13], 3 µM	–	111	–	–	–
[14], 0.1 µM	93	–	–	–	–
[14], 0.3 µM	50	–	–	–	–
[14], 1 µM	60	–	–	–	–
[14], 3 µM	26	–	–	–	–
